# Assay results published in ChEMBL document CHEMBL1201862, “PubChem BioAssay data set” (2004).
# Calls of active or inactive are those of the source.
# Assays:
# [1] = target: Cytochrome P450 2C19 (Homo sapiens, UniProt P33261); assay: Cytochrome panel assay with activity outcomes. Panel member name: p450-cyp2c19 Compounds with AC50 equal or less than 10 uM are considered active; type: functional
# [2] = target: T1, Heat shock factor protein 1 (Mus musculus, UniProt P38532); assay: inhibition of MG132-induced HSE-luciferase signal, confirmation, cell-based, NIH3T3, luminescence, dose retest (AID 2382); type: functional;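 note: NIH3T3 fibroblasts with HSF1-driven luciferase reporter stressed by proteasome inhibitor MG132; luminescence from HSF1-driven luciferase expression after 8 hours of MG132 stress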
# T1 sequence (P38532 whole entry): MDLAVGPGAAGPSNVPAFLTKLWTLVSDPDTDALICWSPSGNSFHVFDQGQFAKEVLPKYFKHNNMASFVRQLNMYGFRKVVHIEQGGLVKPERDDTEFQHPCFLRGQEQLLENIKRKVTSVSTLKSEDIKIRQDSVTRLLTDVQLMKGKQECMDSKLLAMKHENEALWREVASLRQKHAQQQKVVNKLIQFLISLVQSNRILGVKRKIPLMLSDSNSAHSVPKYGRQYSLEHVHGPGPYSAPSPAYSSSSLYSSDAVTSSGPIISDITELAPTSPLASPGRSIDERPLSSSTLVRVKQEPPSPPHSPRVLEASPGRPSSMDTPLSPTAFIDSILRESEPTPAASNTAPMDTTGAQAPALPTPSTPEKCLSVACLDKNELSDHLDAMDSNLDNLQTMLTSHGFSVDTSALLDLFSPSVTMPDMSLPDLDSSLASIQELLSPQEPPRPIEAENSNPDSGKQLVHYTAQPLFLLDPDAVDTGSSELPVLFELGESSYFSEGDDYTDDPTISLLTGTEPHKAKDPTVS
# [3] = target: Cytochrome P450 2C9 (Homo sapiens, UniProt P11712)
# Cytochrome P450 2C9, sequence (P11712 whole entry): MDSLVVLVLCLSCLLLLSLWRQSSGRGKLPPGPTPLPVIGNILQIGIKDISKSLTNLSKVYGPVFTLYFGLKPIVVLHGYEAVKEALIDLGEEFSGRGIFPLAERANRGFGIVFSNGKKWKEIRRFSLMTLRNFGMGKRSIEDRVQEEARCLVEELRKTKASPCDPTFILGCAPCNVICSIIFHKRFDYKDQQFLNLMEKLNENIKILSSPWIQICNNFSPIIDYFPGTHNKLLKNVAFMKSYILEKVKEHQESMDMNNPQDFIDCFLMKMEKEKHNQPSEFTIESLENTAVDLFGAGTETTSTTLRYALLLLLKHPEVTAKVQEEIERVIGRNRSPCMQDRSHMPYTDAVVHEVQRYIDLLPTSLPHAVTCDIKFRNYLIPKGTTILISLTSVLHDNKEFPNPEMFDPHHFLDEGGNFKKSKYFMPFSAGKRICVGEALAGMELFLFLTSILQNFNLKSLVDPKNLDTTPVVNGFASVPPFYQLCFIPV
# [4] = target: Cytochrome P450 3A4 (Homo sapiens, UniProt P08684);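 note: CYP3A4 tested as one member of a cytochrome P450 panel screen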
# Cytochrome P450 3A4, sequence (P08684 whole entry): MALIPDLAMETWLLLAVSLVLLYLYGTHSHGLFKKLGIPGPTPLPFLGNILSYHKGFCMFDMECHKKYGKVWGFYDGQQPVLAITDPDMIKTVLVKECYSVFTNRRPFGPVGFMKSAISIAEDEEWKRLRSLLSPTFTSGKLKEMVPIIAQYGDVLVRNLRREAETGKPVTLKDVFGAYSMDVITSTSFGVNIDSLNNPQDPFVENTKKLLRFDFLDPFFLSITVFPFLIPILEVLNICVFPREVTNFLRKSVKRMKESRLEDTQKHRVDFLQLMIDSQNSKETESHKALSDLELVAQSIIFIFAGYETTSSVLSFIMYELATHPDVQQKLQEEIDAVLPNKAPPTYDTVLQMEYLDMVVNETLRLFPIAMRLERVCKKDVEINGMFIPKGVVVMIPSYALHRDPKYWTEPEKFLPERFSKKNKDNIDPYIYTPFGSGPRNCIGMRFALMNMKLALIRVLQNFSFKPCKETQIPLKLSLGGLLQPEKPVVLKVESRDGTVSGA
# [5] = target: Cytochrome P450 2D6 (Homo sapiens, UniProt P10635);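 note: CYP2D6 member of a cytochrome P450 panel assay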
# Cytochrome P450 2D6, sequence (P10635 whole entry): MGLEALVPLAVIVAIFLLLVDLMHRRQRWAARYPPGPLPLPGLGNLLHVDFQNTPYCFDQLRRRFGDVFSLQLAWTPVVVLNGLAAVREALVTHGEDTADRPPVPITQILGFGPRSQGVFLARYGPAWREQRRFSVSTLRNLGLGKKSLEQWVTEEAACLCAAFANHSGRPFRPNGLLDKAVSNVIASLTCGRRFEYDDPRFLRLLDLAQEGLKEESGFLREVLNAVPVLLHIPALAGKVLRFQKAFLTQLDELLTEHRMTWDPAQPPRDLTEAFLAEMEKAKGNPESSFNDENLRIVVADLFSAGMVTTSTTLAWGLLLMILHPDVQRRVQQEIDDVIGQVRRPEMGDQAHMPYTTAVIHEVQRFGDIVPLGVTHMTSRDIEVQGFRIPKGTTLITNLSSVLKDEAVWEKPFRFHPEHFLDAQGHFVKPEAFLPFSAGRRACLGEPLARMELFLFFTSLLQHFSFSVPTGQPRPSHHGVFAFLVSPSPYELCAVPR
# [6] = Luminescence Cell-Based Dose Retest to Confirm Inhibitors of Cancer Stem Cells. [Related pubchem assays (depositor defined):AID2717, AID2721]; type: functional; settings: Homo sapiens
# [7] = inhibitors of intracellular T. cruzi replication, confirmation, NIH3T3 host cells, beta-gal luminescence (AID 2044); type: functional, cell-based;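 note: intracellular parasites grown in NIH/3T3 mouse fibroblasts as host cells; luminescent beta-galactosidase reporter signal from transgenic T. cruzi replicating inside host cells; inhibitors lower the luminescence signal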
# [8] = cytotoxicity toward NIH3T3 fibroblasts, dose response, counter-screen, cell-based, ATP luminescence, mouse fibroblasts (AID 2010); type: functional;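 note: cells exposed to compound for about 90 hours before reading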
# Cytochrome P450 2C19, sequence (P33261 whole entry): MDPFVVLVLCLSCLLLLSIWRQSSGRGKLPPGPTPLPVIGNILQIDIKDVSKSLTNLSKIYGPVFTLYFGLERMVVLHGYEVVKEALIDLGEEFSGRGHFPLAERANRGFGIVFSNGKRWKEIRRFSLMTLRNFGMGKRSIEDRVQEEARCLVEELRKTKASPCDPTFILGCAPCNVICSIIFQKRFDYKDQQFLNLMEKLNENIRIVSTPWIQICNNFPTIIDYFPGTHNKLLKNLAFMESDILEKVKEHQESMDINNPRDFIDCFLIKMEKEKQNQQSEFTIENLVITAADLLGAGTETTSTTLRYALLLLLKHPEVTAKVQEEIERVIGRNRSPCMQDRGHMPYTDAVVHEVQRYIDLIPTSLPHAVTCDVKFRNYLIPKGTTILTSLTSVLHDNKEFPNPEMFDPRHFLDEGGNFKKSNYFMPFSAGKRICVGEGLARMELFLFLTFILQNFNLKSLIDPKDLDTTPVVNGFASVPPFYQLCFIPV
compound,measurement,setting,value
CCOc1ccc(-c2nnc3ccc(SC)nn23)cc1,AC50,[1]; read-out: AC50,7.94 µM (inconclusive)
Cc1cc(Cl)ccc1OCC(=O)Nc1nc(-c2cccnc2)cs1,EC50,[2],> 195 µM (not active)
CC(=O)CC(=O)Nc1ccc2ccccc2c1,AC50,[1],inconclusive
Cc1cc(N2CCOCC2)ncc1[N+](=O)[O-],AC50,[3],14.1 µM (inconclusive)
Cc1ccc(C(=O)Nc2ccc(C(=O)/C=C/c3cccs3)cc2)cc1,AC50,[1]; read-out: AC50,7.08 µM (inconclusive)
same,AC50,[4],5.01 µM (inconclusive)
same,AC50,[3],11.2 µM (inconclusive)
CCc1c(C)c(C#N)c2nc3ccccc3n2c1Nc1c(C)n(C)n(-c2ccccc2)c1=O,AC50,[1]; read-out: AC50,25.1 µM (inconclusive)
same,AC50,[3],5.01 µM (inconclusive)
Cc1cccn2c(=O)c3cc(C(=O)N4COCC4(C)C)n(C)c3nc12,AC50,[1]; read-out: AC50,4.47 µM (inconclusive)
O=C(Cn1c(-c2cscn2)nc2ccccc21)Nc1cc(F)ccc1F,AC50,[5],22.4 µM (inconclusive)
CN1CC[C@@]2(CCCN(C(=O)c3cc(C(F)(F)F)cc(C(F)(F)F)c3)C2)C1,AC50,[4],25.1 µM (inconclusive)
CCC1=NN(C(=O)c2ccc(Cl)cc2)C(O)(c2ccc(C)cc2)C1 (stereo not given),AC50,[6],4.64 µM (active)
COc1ccc(-n2c(-c3ccccc3)nc(=S)c3c2CCCC3)cc1,AC50,[4],20 µM (inconclusive)
O=C(COC(=O)c1cccnc1Cl)c1ccccc1,AC50,[1]; read-out: AC50,39.8 µM (inconclusive)
same,AC50,[3],17.8 µM (inconclusive)
CS(=O)(=O)N1CCN(c2cccc(Cl)n2)CC1,EC50,[2],> 195 µM (not active)
C=CCC(C(=O)OC)(C(=O)OC)c1ccc([N+](=O)[O-])cn1,AC50,[1]; read-out: AC50,14.1 µM (inconclusive)
COc1ccc(OC)c(-c2csc(N(CC3CCCO3)C(=O)C3CCCCC3)n2)c1 (stereo not given),AC50,[6],3.5 µM (active)
N=C(N)N[C@H](CCC(=O)O)C(=O)O,AC50,[4],3.16 µM (inconclusive)
Cc1cccc(CNc2nc(-c3ccc4c(c3)OCO4)nc3ccccc23)c1,AC50,[3],1 µM (inconclusive)
Cc1cccc(N(C(=O)C(F)(F)F)C(C(=O)NC2CCCCC2)c2cccs2)c1 (stereo not given),EC50,[7],3.39 µM (active)
same,EC50,[8],> 60 µM (not active)
CC(=O)Nc1ccccc1C(=O)OCC(=O)c1ccc2ccccc2c1,AC50,[1]; read-out: AC50,1.26 µM (inconclusive)
CC(=O)Nc1ccc2c(c1)/C(=N/c1ccc(C(=O)O)cc1)c1ccccc1-2,AC50,[4],3.98 µM (inconclusive)
CCc1ccc(NC(=O)C2CCC(CNC(=O)[C@@H]3Cc4ccccc4CN3)CC2)cc1 (stereo not given in full),EC50,[2],> 195 µM (not active)
COC(=O)[C@H]1C[C@@H]1[C@H](NC(=O)c1cc(C)on1)c1ccccc1,AC50,[4],15.8 µM (inconclusive)
same,AC50,[3],31.6 µM (inconclusive)
c1cncc(CNc2nc(-c3ccoc3)nc3ccccc23)c1,AC50,[1]; read-out: AC50,20 µM (inconclusive)
COc1ccc2c(c1)C=C(CN1CCN(C3CCCC3)C(CCO)C1)CO2 (stereo not given),EC50,[7],1.75 µM (active)
same,EC50,[8],> 60 µM (not active)
O=C(c1csnn1)N1CCC[C@@]2(CCN(Cc3nccs3)C2)C1,AC50,[1]; read-out: AC50,25.1 µM (inconclusive)
COc1cccc(CN(C)CC2CCCN(CCc3ccc(Cl)cc3)C2)c1OC (stereo not given),EC50,[2],> 195 µM (not active)
CN=C(S)N(CCc1c(C)[nH]c2ccc(Cl)cc12)Cc1cccs1,EC50,[7],2.28 µM (active)
same,EC50,[8],> 30 µM (not active)
N#Cc1cc(-c2ccc(Cl)cc2)cnc1Sc1ccccc1,EC50,[7],3.77 µM (active)
same,EC50,[8],> 60 µM (not active)
CCSc1nnc(NC(=O)Cc2ccc(OC)c(OC)c2)s1,AC50,[1]; read-out: AC50,28.2 µM (inconclusive)
same,AC50,[3],2.82 µM (inconclusive)
CC(C)(C)c1ccc(C(=O)Nc2cccc3c(=O)[nH][nH]c(=O)c23)cc1,EC50,[2],3.66 µM (active)
Cc1ccc(C)c(N2CN(Cc3cccnc3)CN=C2S)c1,EC50,[7],0.726 µM (active)
same,EC50,[8],> 60 µM (inconclusive)
Cc1cc(C(=O)Nc2nc3c(s2)CCCC3)cs1,AC50,[6],1.97 µM (active)
NC(=O)c1cc2ccncc2c2ccccc12,EC50,[2],4.29 µM (active)
Cc1ccccc1-c1cncnc1Nc1ccccc1,AC50,[5],39.8 µM (inconclusive)
C[C@@]12CCC(=O)C=C1CC[C@H]1[C@@H]2[C@@H](O)C[C@]2(C)[C@@H]1CC[C@@]2(O)C(=O)COC(=O)C1CCCC1,AC50,[4],5.01 µM (inconclusive)
COC(=O)[C@@]1(Cc2ccc(OC)cc2)[C@H]2c3cc(C(=O)N4CCCC4)n(Cc4cc(F)c(F)c(F)c4)c3C[C@H]2CN1C(=O)c1ccccc1,AC50,[1]; read-out: AC50,1.58 µM (inconclusive)
CCOc1ccc(CCNC(=O)c2nn(C)c3c2CS(=O)(=O)c2ccccc2-3)cc1,EC50,[2],> 195 µM (not active)
Cn1c(=N)n(CC(O)c2ccccc2)c2ccccc21 (stereo not given),EC50,[2],> 195 µM (not active)
CCn1cc(S(=O)(=O)Nc2ccc3c(c2)OCCO3)cn1,EC50,[2],1.86 µM (active)
CCCNC(=O)c1cccc(COCC(F)(F)F)c1,EC50,[2],> 195 µM (not active)
COc1ccccc1-c1cncnc1NCCNC(C)=O,AC50,[1]; read-out: AC50,39.8 µM (inconclusive)
CCOC(=O)N1CCC(NC(=O)CCC(=O)N2CCOc3ccccc32)CC1,AC50,[1]; read-out: AC50,14.1 µM (inconclusive)
same,AC50,[4],10 µM (inconclusive)
COc1ccc(CN2CCN(Cc3csc(C(C)=O)c3)CC2CCO)c(C)c1C (stereo not given),EC50,[7],0.284 µM (active)
same,EC50,[8],> 60 µM (not active)
Cc1ccc(C(=O)N(CCCN(C)C)c2nc3ccc(Cl)cc3s2)cc1C,EC50,[7],0.216 µM (active)
same,EC50,[8],> 60 µM (inconclusive)
O=S(=O)(NCC(c1cccnc1)N1CCN(Cc2ccccc2)CC1)c1ccc(Cl)cc1 (stereo not given),EC50,[7],0.641 µM (active)
same,EC50,[8],> 60 µM (not active)
COCCn1c(=O)[nH]c2cc(C(=O)N3CCN(c4ccccc4OC)CC3)ccc2c1=O,AC50,[1]; read-out: AC50,6.31 µM (inconclusive)
same,AC50,[4],14.1 µM (inconclusive)
COC(=O)C/C=C\[C@@H](C)[C@@H](/C=N\OC[C@@H](C)[C@H](OCc1ccccc1)C(C)C)OC,AC50,[1]; read-out: AC50,2 µM (inconclusive)
same,AC50,[4],3.16 µM (inconclusive)
same,AC50,[3],3.16 µM (inconclusive)
CN1CCN(c2ccc(S(=O)(=O)N3CCOCC3)cc2NC(=O)CCc2ccccc2)CC1,EC50,[7],1.58 µM (active)
same,EC50,[8],> 30 µM (not active)
Cc1nn(-c2ccccc2)c2nc(N)c(C#N)c(-c3ccc(C(C)(C)C)cc3)c12,AC50,[6],2.14 µM (active)
N#Cc1ccccc1-c1ccc2ncnc(NCc3cccs3)c2c1,AC50,[1]; read-out: AC50,39.8 µM (inconclusive)
same,AC50,[3],1 µM (inconclusive)
O=C(Oc1ccccc1)N1CCC2(CCCN(c3ccccc3)C2)CC1,AC50,[4],31.6 µM (inconclusive)
same,AC50,[3],12.6 µM (inconclusive)
COc1ccc(/C=C/C(=O)OCCCN(C)C)cc1,EC50,[7],0.237 µM (active)
same,EC50,[8],> 60 µM (not active)
COc1cc(NC(=O)N[C@@H](Cc2c[nH]c3ccccc23)C(=O)O)c(C(=O)O)cc1OC,EC50,[2],> 195 µM (not active)
CCC(=O)N1CCc2cc(S(=O)(=O)NC(C(=O)NCc3ccc(C)cc3)C(C)C)ccc21 (stereo not given),EC50,[2],> 195 µM (not active)
CC1(C)C[C@H](O)[C@]2(CO)[C@H](O)C[C@]3(C)C(=CCC4[C@@]5(C)CC[C@H](O)C(C)(C)C5CC[C@]43C)[C@@H]2C1 (stereo not given in full),AC50,[6],1.97 µM (active)
Cc1ccc(-c2csc(NCCn3c(-c4ccncc4)nc4cc(C(F)(F)F)ccc43)n2)cc1,AC50,[6],8 µM (active)
CCOC(=O)c1c(C)nc2c(c1-c1ccccc1)C(=O)CC(C)(C)C2,AC50,[3],15.8 µM (inconclusive)
CC(=O)OC1N=C(c2ccccc2)c2cc(Br)ccc2N(C)C1=O (stereo not given),AC50,[1]; read-out: AC50,39.8 µM (inconclusive)
same,AC50,[3],17.8 µM (inconclusive)
CC(C)(C)C(=O)N1CCC(O)(CS(=O)(=O)Cc2ccc(Cl)cc2)CC1,AC50,[4],20 µM (inconclusive)
COc1ccc(CC2SC(N/N=C/c3ccccc3O)=NC2=O)cc1 (stereo not given),AC50,[6],8.79 µM (active)
C/C(=N\NC(=O)c1c(C)nc2ccccn12)c1ccc(C(C)(C)C)cc1,EC50,[2],> 195 µM (not active)
COc1cc(C(=O)N/N=C(\Cc2ncc[nH]2)c2ccccc2)cc(OC)c1OC,AC50,[6],2.89 µM (active)
CCc1nnc(N/N=C\c2ccc(OC(C)=O)c(OC)c2)n1N,EC50,[2],> 195 µM (not active)
C/C(=N\N(Cc1ccccc1)c1ccccc1)c1cccnc1,EC50,[7],3.78 µM (active)
same,EC50,[8],> 60 µM (not active)
Cc1ccc(-c2nnc(S)n2/N=C/c2cccn2C)cc1,AC50,[5],5.01 µM (inconclusive)
CCN1C(=O)/C(=C\c2ccncc2)S/C1=N\c1ccc(C)c(C)c1,AC50,[6],3.77 µM (active)
Cc1cc(C)c(S(=O)(=O)N/N=C/c2ccc3c(c2)OCO3)c(C)c1,EC50,[2],> 195 µM (not active)
Cc1[nH]n(-c2ccccc2)c(=O)c1/N=N/c1cccc([N+](=O)[O-])c1,EC50,[7],> 30 µM (not active)
same,EC50,[8],> 60 µM (not active)
O=C1C=CC(=O)c2c1ccc1c2ccc2ccccc21,AC50,[5],5.01 µM (inconclusive)
CC1=C(CC(=O)O)c2cc(F)ccc2/C1=C\c1ccc(S(C)(=O)=O)cc1 [EXISULIND],AC50,[1],inconclusive
